Drawing on patent US10696985B1, “Reversibly crosslinked endosomolytic polymer vesicles for cytosolic drug delivery” (Vanderbilt University, priority 2016, dated 2020), this text covers encapsulation efficiency and immunostimulatory activity for two compounds.

Data set [1] can be described thus: Encapsulation efficiency of cargo in PEG-EBP polymer vesicles. The following applies: cGAMP within PEG-EBP vesicles; high performance liquid chromatography.
Method: Encapsulation efficiency is defined as the percentage of cargo associated with the vesicle after cargo loading and separation of vesicles from unencapsulated cargo. N=number of experiments performed for a specific cargo type.
For formulation of polymeric vesicles, 5 mg of the polymer is mixed with 4 μL of ethanol. Upon equilibration, 4 μL of cGAMP solution (0-50 mg/mL in water) is added to the polymer/ethanol gel. […] Upon formation of vesicles, the colloid is diluted into water and sonicated further to generate the PEG-EBP encapsulated cGAMP colloid.
Solvent composition and stepwise addition amounts were chosen to maximize the vesicle yield of the formulation process while maximizing encapsulant concentration during vesicle self-assembly. […] Particles were crosslinked post assembly via addition of 0.5 molar equivalents of DTT relative to pyidyl disulfide moieties comprising the PEG-EBP colloid. Nanoparticles were readily separated from free cGAMP and crosslinking byproducts via centrifugal ultrafiltration using a 10 kDa cutoff.
Pyridyl disulfide (PDS) moieties were exploited for post-assembly in situ crosslinking of the vesicle membrane via partial reduction of disulfide bonds with DTT.
In data set [2] the target is T1, TLR-2 (Mus musculus, UniProt Q9EPQ1+Q9QUN7).
T1 construct: endogenous in cells; host or cells: RAW264.7 NF-kB reporter cells
The experiment in a line: RAW264.7 NF-κB reporter cell assay. The settings on record: incorporated into the PEG-EBP vesicle membrane, versus free Pam3CSK4. Type of data set: cell-based. The source says:
PEG-EBP polymer vesicles were also shown to serve as a carrier for agonists of pattern recognition receptors (PRRs) that reside on the cell surface. […] The reduced activity of Pam3CSK4 incorporated into vesicles is thought to be primarily related to the ˜50% of Pam3CSK4 molecules that are incorporated into the inner leaflet of the vesicle membrane, and therefore are not accessible for binding to cell surface TLR-2 molecules.

T1 sequence (Q9QUN7 25-784): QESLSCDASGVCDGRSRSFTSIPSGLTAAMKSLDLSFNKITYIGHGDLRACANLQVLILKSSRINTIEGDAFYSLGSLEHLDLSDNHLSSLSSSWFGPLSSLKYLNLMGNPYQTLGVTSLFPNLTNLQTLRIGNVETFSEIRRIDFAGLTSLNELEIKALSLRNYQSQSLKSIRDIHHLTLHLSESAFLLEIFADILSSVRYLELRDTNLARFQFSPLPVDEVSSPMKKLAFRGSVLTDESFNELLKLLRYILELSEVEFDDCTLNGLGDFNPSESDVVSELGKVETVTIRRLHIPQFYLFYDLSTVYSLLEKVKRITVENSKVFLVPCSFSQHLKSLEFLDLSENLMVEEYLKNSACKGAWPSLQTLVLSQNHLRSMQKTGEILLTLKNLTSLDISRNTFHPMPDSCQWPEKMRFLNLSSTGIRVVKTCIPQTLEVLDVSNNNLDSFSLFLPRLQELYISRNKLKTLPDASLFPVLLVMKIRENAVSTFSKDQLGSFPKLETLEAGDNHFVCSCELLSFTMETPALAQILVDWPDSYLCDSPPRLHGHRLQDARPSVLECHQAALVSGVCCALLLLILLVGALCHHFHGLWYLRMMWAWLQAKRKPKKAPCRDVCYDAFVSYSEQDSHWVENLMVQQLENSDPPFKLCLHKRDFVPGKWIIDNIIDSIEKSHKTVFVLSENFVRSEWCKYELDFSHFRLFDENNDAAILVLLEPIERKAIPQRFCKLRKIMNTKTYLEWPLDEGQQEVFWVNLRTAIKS
T1 sequence (Q9EPQ1 25-795 limits assumed): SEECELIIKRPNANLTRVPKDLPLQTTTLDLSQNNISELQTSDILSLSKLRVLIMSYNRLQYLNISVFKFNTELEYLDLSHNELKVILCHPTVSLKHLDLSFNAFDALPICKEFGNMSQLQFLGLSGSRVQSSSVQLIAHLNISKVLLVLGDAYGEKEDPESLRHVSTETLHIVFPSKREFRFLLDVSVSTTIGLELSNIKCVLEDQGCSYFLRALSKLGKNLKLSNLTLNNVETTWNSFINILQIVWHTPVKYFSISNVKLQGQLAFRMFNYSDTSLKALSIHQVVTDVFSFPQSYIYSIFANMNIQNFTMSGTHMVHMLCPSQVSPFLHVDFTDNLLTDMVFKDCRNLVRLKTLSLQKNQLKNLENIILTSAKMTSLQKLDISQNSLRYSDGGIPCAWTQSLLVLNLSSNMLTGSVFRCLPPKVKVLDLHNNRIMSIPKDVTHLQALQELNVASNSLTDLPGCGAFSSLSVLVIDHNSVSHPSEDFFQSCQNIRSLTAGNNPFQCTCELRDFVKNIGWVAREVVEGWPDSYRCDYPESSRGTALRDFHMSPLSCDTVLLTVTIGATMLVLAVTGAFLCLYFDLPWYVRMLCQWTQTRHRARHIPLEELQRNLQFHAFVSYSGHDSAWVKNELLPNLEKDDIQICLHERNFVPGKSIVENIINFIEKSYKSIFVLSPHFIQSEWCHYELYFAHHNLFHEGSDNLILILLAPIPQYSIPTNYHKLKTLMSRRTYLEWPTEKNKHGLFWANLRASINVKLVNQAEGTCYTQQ

On to `Nc1nc2c(ncn2[C@@H]2O[C@@H]3COP(=O)(O)O[C@H]4[C@@H](O)[C@H](n5cnc6c(N)ncnc65)O[C@@H]4COP(=O)(O)O[C@@H]2[C@@H]3O)c(=O)[nH]1` [cGAMP, cyclic guanosine monophosphate-adenosine monophosphate], for which, in data set [1], the encapsulation efficiency came to 38±3%.

For the compound Pam3CSK4, in data set [2], the immunostimulatory activity result is “partially retained”.
